Laboratory results published in PubChem BioAssay (NCI).
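GI50 is the concentration that inhibits growth by half. The concentration for full growth arrest is given as TGI.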

Legend:
Assay in all cases: growth of human tumour cells (NCI), 384-well format
DU-145 prostate = system: DU-145 prostate
786-0 renal = system: 786-0 renal
SNB-19 CNS = system: SNB-19 CNS
HCT-15 colon = system: HCT-15 colon
SNB-75 CNS = system: SNB-75 CNS
UACC-257 melanoma = system: UACC-257 melanoma
MDA-MB-435 melanoma = system: MDA-MB-435 melanoma
EKVX NSCLC = system: EKVX NSCLC
SK-MEL-2 melanoma = system: SK-MEL-2 melanoma
K-562 leukemia = system: K-562 leukemia
NCI-H23 lung = system: NCI-H23 lung
SN12C renal = system: SN12C renal
T-47D breast = system: T-47D breast
U251 glioblastoma = system: U251 glioblastoma
HT29 colon = system: HT29 colon
UACC-62 melanoma = system: UACC-62 melanoma
MOLT-4 leukemia = system: MOLT-4 leukemia
HCC-2998 colon = system: HCC-2998 colon
NCI-H460 NSCLC = system: NCI-H460 NSCLC
HOP-92 NSCLC = system: HOP-92 NSCLC
CCRF-CEM leukemia = system: CCRF-CEM leukemia
RPMI-8226 leukemia = system: RPMI-8226 leukemia
OVCAR-5 ovarian = system: OVCAR-5 ovarian
M14 melanoma = system: M14 melanoma
CAKI-1 renal = system: CAKI-1 renal
RXF 393 renal = system: RXF 393 renal
SK-MEL-5 melanoma = system: SK-MEL-5 melanoma
MCF7 breast = system: MCF7 breast
HCT-116 colon = system: HCT-116 colon
COLO 205 colon = system: COLO 205 colon
TK-10 renal = system: TK-10 renal
LOX IMVI melanoma = system: LOX IMVI melanoma
IGROV1 ovarian = system: IGROV1 ovarian
HL-60(TB) leukemia = system: HL-60(TB) leukemia
NCI-H522 lung = system: NCI-H522 lung
MDA-MB-468 breast = system: MDA-MB-468 breast
HS 578T breast = system: HS 578T breast
MALME-3M melanoma = system: MALME-3M melanoma
ACHN renal = system: ACHN renal
OVCAR-3 ovarian = system: OVCAR-3 ovarian

## O=C1CCc2c(Oc3ccc4c(c3)[C@H]3[C@@H](O4)[C@@H]3c3nc4ccc(C(F)(F)F)cc4[nH]3)ccnc2N1
DU-145 prostate
  GI50: 2.94 µM
  TGI: > 100 µM
786-0 renal
  GI50: 3.17 µM
  TGI: > 100 µM
SNB-19 CNS
  GI50: 4.79 µM
  TGI: > 100 µM
HCT-15 colon
  GI50: 2.42 µM
  TGI: > 100 µM
SNB-75 CNS
  GI50: 4.41 µM
  TGI: > 100 µM
UACC-257 melanoma
  GI50: 0.0436 µM
  TGI: 0.347 µM
MDA-MB-435 melanoma
  GI50: 0.0302 µM
  TGI: 0.169 µM
EKVX NSCLC
  GI50: 1.64 µM
  TGI: 8.38 µM
SK-MEL-2 melanoma
  GI50: 0.258 µM
  TGI: 1.21 µM
K-562 leukemia
  GI50: 0.0201 µM
  TGI: 0.05 µM
NCI-H23 lung
  GI50: 0.169 µM
  TGI: 0.454 µM
SN12C renal
  GI50: 2.08 µM
  TGI: > 100 µM
T-47D breast
  GI50: 1.69 µM
  TGI: 6.94 µM
U251 glioblastoma
  GI50: 3.39 µM
  TGI: > 100 µM
HT29 colon
  GI50: 0.206 µM
  TGI: > 100 µM
UACC-62 melanoma
  GI50: 0.0173 µM
  TGI: 0.119 µM
MOLT-4 leukemia
  GI50: 1.14 µM
  TGI: 2.38 µM
HCC-2998 colon
  GI50: 1.2 µM
  TGI: 5.98 µM
NCI-H460 NSCLC
  GI50: 1.67 µM
  TGI: > 100 µM
HOP-92 NSCLC
  GI50: 1.65 µM
  TGI: 3.91 µM
CCRF-CEM leukemia
  GI50: 1.2 µM
  TGI: 3.05 µM
RPMI-8226 leukemia
  GI50: 0.166 µM
  TGI: 0.304 µM
OVCAR-5 ovarian
  GI50: 0.793 µM
  TGI: > 100 µM
M14 melanoma
  GI50: 0.0134 µM
  TGI: 0.119 µM
CAKI-1 renal
  GI50: 1.26 µM
  TGI: > 100 µM
RXF 393 renal
  GI50: 0.188 µM
  TGI: 0.331 µM
SK-MEL-5 melanoma
  GI50: 0.0549 µM
  TGI: 1.48 µM
MCF7 breast
  GI50: 0.294 µM
  TGI: 1.17 µM
HCT-116 colon
  GI50: 0.494 µM
  TGI: 3.58 µM
COLO 205 colon
  GI50: 0.018 µM
  TGI: 0.348 µM
TK-10 renal
  GI50: 1.83 µM
  TGI: 8.27 µM
LOX IMVI melanoma
  GI50: 0.113 µM
  TGI: 0.256 µM
IGROV1 ovarian
  GI50: 0.789 µM
  TGI: 7.13 µM
HL-60(TB) leukemia
  GI50: 0.0857 µM
  TGI: 0.21 µM
NCI-H522 lung
  GI50: 0.154 µM
  TGI: 0.292 µM
MDA-MB-468 breast
  GI50: 1.06 µM
  TGI: 3.33 µM
HS 578T breast
  GI50: 1.6 µM
  TGI: 7.13 µM
MALME-3M melanoma
  TGI: 0.0322 µM
ACHN renal
  GI50: 0.241 µM
  TGI: 0.592 µM
OVCAR-3 ovarian
  GI50: 3.57 µM
  TGI: > 100 µM
